From the supplement of paper PMC13380429

How the values were obtained:
A549-ACE2 [1] = assay: phospholipidosis EC50; higher = less potent phospholipidosis inducer
Calu-3 [2] = assay: drug sensitivity score (DSS) for viability; higher = more toxic; extreme values may be limits of the assay; settings: 72 h
U2OS [3] = assay: as above; settings: 72 h
Caco-2 [4] = assay: as above; settings: 72 h
HepG2 [5] = assay: as above; settings: 72 h
Vero E6 [6] = assay: as above; settings: 72 h
Calu-3 [7] = assay: relative viability EC50 (midpoint between 100% and the lowest measured viability); higher = less toxic; settings: 72 h
U2OS [8] = assay: as above; settings: 72 h
Caco-2 [9] = assay: as above; settings: 72 h
HepG2 [10] = assay: as above; settings: 72 h
Vero E6 [11] = assay: as above; settings: 72 h
Calu-3 [12] = assay: cell viability relative to DMSO; higher = less toxic; settings: 72 h
U2OS [13] = assay: as above; settings: 72 h
Caco-2 [14] = assay: as above; settings: 72 h
HepG2 [15] = assay: as above; settings: 72 h
Vero E6 [16] = assay: as above; settings: 72 h
[17] = test system: A549-ACE2 infected with SARS-CoV-2; assay: SARS-CoV-2 infection rate relative to DMSO; higher = more infection; settings: 24 h
A549-ACE2 [18] = assay: drug-induced phospholipidosis relative to tamoxifen; higher = more phospholipidosis
[19] = test system: A549-ACE2 infected with SARS-CoV-2; assay: cell count relative to DMSO; higher = less toxic; settings: 24 h
[20] = test system: A549-ACE2 infected with SARS-CoV-2; assay: morphology score (similarity to uninfected cells); higher = more like uninfected cells; settings: 24 h

CC(C)c1cnn2c(NCc3ccccc3)cc(NCCCCCCN)nc12 [BS-181]
Settings | SARS-CoV-2 infection rate [%] | cell count [%] | cell viability [%] | morphology score | phospholipidosis EC50 [µM]
A549-ACE2 [1], 24 h | – | – | – | – | 15
Caco-2 [14], 1 nM | – | – | 101 | – | –
Caco-2 [14], 10 nM | – | – | 84 | – | –
Caco-2 [14], 100 nM | – | – | 122 | – | –
Caco-2 [14], 1000 nM | – | – | 90.2 | – | –
Caco-2 [14], 10000 nM | – | – | 79 | – | –
Calu-3 [12], 1 nM | – | – | 100 | – | –
Calu-3 [12], 10 nM | – | – | 106 | – | –
Calu-3 [12], 100 nM | – | – | 99.9 | – | –
Calu-3 [12], 1000 nM | – | – | 115 | – | –
Calu-3 [12], 10000 nM | – | – | 87.3 | – | –
HepG2 [15], 1 nM | – | – | 97 | – | –
HepG2 [15], 10 nM | – | – | 92 | – | –
HepG2 [15], 100 nM | – | – | 98.1 | – | –
HepG2 [15], 1000 nM | – | – | 90.3 | – | –
HepG2 [15], 10000 nM | – | – | 80 | – | –
U2OS [13], 1 nM | – | – | 102 | – | –
U2OS [13], 10 nM | – | – | 94.8 | – | –
U2OS [13], 100 nM | – | – | 101 | – | –
U2OS [13], 1000 nM | – | – | 96.1 | – | –
U2OS [13], 10000 nM | – | – | 91 | – | –
Vero E6 [16], 1 nM | – | – | 98.5 | – | –
Vero E6 [16], 10 nM | – | – | 97.6 | – | –
Vero E6 [16], 100 nM | – | – | 99 | – | –
Vero E6 [16], 1000 nM | – | – | 94.6 | – | –
Vero E6 [16], 10000 nM | – | – | 86.1 | – | –
[17], 0.3 µM | 99 | – | – | – | –
[17], 3 µM | 37 | – | – | – | –
[17], 10 µM | 9 | – | – | – | –
[17], 30 µM | 25 | – | – | – | –
[19], 0.3 µM | – | 102 | – | – | –
[19], 3 µM | – | 115 | – | – | –
[19], 10 µM | – | 101 | – | – | –
[19], 30 µM | – | 47 | – | – | –
[20], 0.3 µM | – | – | – | 0.12 | –
[20], 3 µM | – | – | – | 0.87 | –
[20], 10 µM | – | – | – | 0.93 | –
[20], 30 µM | – | – | – | 0.26 | –

Settings | drug sensitivity score | relative viability EC50 [µM]
Caco-2 [4] | 1.7 | –
Caco-2 [9] | – | > 10
Calu-3 [2] | 0 | –
Calu-3 [7] | – | > 10
HepG2 [5] | 0.9 | –
HepG2 [10] | – | > 10
U2OS [3] | 0 | –
U2OS [8] | – | > 10
Vero E6 [6] | 0.4 | –
Vero E6 [11] | – | > 10

drug-induced phospholipidosis [%], A549-ACE2 [18]
Settings | 0.3 µM | 0.833333 µM | 3.33333 µM | 6.66667 µM | 10 µM | 30 µM
24 h | 0.84 | 1.04 | 6.25 | 11.9 | 29.1 | 83.9
48 h | 1.54 | 0.53 | 4.06 | 7 | 14.2 | 37.6
72 h | 2.87 | 1.74 | 3.1 | 5.35 | 9.65 | 19.3

N=C(N)c1cc2ccc(OC(=O)c3cccs3)cc2s1 [BCX-1470]
Settings | drug sensitivity score | relative viability EC50 [µM]
Caco-2 [4] | 0 | –
Caco-2 [9] | – | > 10
HepG2 [5] | 4.6 | –
HepG2 [10] | – | 3.32
U2OS [3] | 0 | –
U2OS [8] | – | > 10
Vero E6 [6] | 0 | –
Vero E6 [11] | – | > 10

Settings | SARS-CoV-2 infection rate, [17] [%] | cell count, [19] [%] | cell viability, Caco-2 [14] [%] | cell viability, HepG2 [15] [%] | cell viability, U2OS [13] [%] | cell viability, Vero E6 [16] [%] | morphology score, [20]
1 nM | – | – | 97.9 | 112 | 100 | 97 | –
10 nM | – | – | 96.1 | 100 | 100 | 95.2 | –
100 nM | – | – | 95.5 | 104 | 98.4 | 92.8 | –
0.3 µM | 97 | 102 | – | – | – | – | 0.05
1000 nM | – | – | 96.5 | 102 | 95.9 | 98.2 | –
3 µM | 99 | 99 | – | – | – | – | -0.11
10000 nM | – | – | 107 | 13.1 | 101 | 96.2 | –
10 µM | 54 | 95 | – | – | – | – | 0.59
30 µM | 22 | 52 | – | – | – | – | 0.39

drug-induced phospholipidosis [%], A549-ACE2 [18]
Settings | 0.3 µM | 0.833333 µM | 3.33333 µM | 6.66667 µM | 10 µM
24 h | 1.95 | 3.92 | 0.54 | 7.05 | 10.8
48 h | 1.86 | -0.27 | -2.94 | 10.7 | 17.1
72 h | 0.245 | -2.66 | -0.938 | 1.04 | 8.25

CCn1c2ccccc2c2cc(CNC)ccc21 [PhiKan-083]
Settings | SARS-CoV-2 infection rate [%] | cell count [%] | cell viability [%] | morphology score | phospholipidosis EC50 [µM]
A549-ACE2 [1], 24 h | – | – | – | – | 5.19
A549-ACE2 [1], 48 h | – | – | – | – | 6.25
A549-ACE2 [1], 72 h | – | – | – | – | 6.91
Caco-2 [14], 1 nM | – | – | 102 | – | –
Caco-2 [14], 10 nM | – | – | 100 | – | –
Caco-2 [14], 100 nM | – | – | 102 | – | –
Caco-2 [14], 1000 nM | – | – | 105 | – | –
Caco-2 [14], 10000 nM | – | – | 108 | – | –
Calu-3 [12], 1 nM | – | – | 96.2 | – | –
Calu-3 [12], 10 nM | – | – | 99.9 | – | –
Calu-3 [12], 100 nM | – | – | 105 | – | –
Calu-3 [12], 1000 nM | – | – | 97.6 | – | –
Calu-3 [12], 10000 nM | – | – | 103 | – | –
HepG2 [15], 1 nM | – | – | 98.2 | – | –
HepG2 [15], 10 nM | – | – | 106 | – | –
HepG2 [15], 100 nM | – | – | 97.4 | – | –
HepG2 [15], 1000 nM | – | – | 99.3 | – | –
HepG2 [15], 10000 nM | – | – | 68.3 | – | –
U2OS [13], 1 nM | – | – | 99.4 | – | –
U2OS [13], 10 nM | – | – | 100 | – | –
U2OS [13], 100 nM | – | – | 99.2 | – | –
U2OS [13], 1000 nM | – | – | 99.7 | – | –
U2OS [13], 10000 nM | – | – | 98.8 | – | –
Vero E6 [16], 1 nM | – | – | 98.5 | – | –
Vero E6 [16], 10 nM | – | – | 103 | – | –
Vero E6 [16], 100 nM | – | – | 98.7 | – | –
Vero E6 [16], 1000 nM | – | – | 99.9 | – | –
Vero E6 [16], 10000 nM | – | – | 90.8 | – | –
[17], 0.3 µM | 94 | – | – | – | –
[17], 3 µM | 79 | – | – | – | –
[17], 10 µM | 51 | – | – | – | –
[17], 30 µM | 16 | – | – | – | –
[19], 0.3 µM | – | 103 | – | – | –
[19], 3 µM | – | 105 | – | – | –
[19], 10 µM | – | 117 | – | – | –
[19], 30 µM | – | 119 | – | – | –
[20], 0.3 µM | – | – | – | 0.23 | –
[20], 3 µM | – | – | – | 0.46 | –
[20], 10 µM | – | – | – | 0.75 | –
[20], 30 µM | – | – | – | 0.82 | –

Settings | drug sensitivity score | relative viability EC50 [µM]
Caco-2 [4] | 0 | –
Caco-2 [9] | – | > 10
Calu-3 [2] | 0 | –
Calu-3 [7] | – | > 10
HepG2 [5] | 1.5 | –
U2OS [3] | 0 | –
U2OS [8] | – | > 10
Vero E6 [6] | 0 | –
Vero E6 [11] | – | > 10

drug-induced phospholipidosis [%], A549-ACE2 [18]
Settings | 0.3 µM | 0.833333 µM | 3.33333 µM | 6.66667 µM | 10 µM | 30 µM
24 h | 2.5 | 2.35 | 26.5 | 64.2 | 83.4 | 97.2
48 h | 3.59 | 3.69 | 21.8 | 58.2 | 75.7 | 99.9
72 h | 3.02 | 2.71 | 17.3 | 49 | 70.8 | 95.9

C(#Cc1nc2ncccc2nc1OCCN1CCCC1)c1ccccc1 [GK921]
Settings | drug sensitivity score | relative viability EC50 [µM]
Caco-2 [4] | 5.4 | –
Caco-2 [9] | – | 3.13
Calu-3 [2] | 6.4 | –
Calu-3 [7] | – | 2.61
HepG2 [5] | 9.4 | –
HepG2 [10] | – | 1.53
U2OS [3] | 9.7 | –
U2OS [8] | – | 1.46
Vero E6 [6] | 5.3 | –
Vero E6 [11] | – | 3.35

Settings | SARS-CoV-2 infection rate, [17] [%] | cell count, [19] [%] | cell viability, Caco-2 [14] [%] | cell viability, Calu-3 [12] [%] | cell viability, HepG2 [15] [%] | cell viability, U2OS [13] [%] | cell viability, Vero E6 [16] [%] | morphology score, [20]
1 nM | – | – | 100 | 98.7 | 92.4 | 97.1 | 97.2 | –
10 nM | – | – | 98.2 | 90.9 | 99.3 | 95.7 | 97.6 | –
100 nM | – | – | 101 | 93.1 | 102 | 99.2 | 94.9 | –
0.1 µM | 100 | 101 | – | – | – | – | – | 0.03
0.3 µM | 102 | 102 | – | – | – | – | – | -0.05
1000 nM | – | – | 99.5 | 93.3 | 74.5 | 72.2 | 103 | –
1 µM | 101 | 95 | – | – | – | – | – | 0.02
3 µM | 53 | 86 | – | – | – | – | – | 0.48
10000 nM | – | – | 3.8 | 2.5 | -0.3 | -0.2 | 0 | –

drug-induced phospholipidosis [%], A549-ACE2 [18]
Settings | 24 h | 48 h | 72 h
0.3 µM | 2.77 | 8.46 | 11.7
0.833333 µM | 6.24 | 5.53 | 2.54
